Measured values: patent US6949648B2, “Condensed pyrazole derivatives, process for producing the same and use thereof” (Takeda Pharmaceutical Company Limited, priority 2000, dated 2005)
Like-named read-outs stand apart in the source and are kept apart here. Marks after values point to notes of the source that are not given here.

Tests used:
[1] = system: IL-5; assay: Effect on cytokine production of mice sensitized by controlled-release ovalbumin: IL-5; format: in vivo, BALB/c mouse; details: Mus musculus, po; 30 mg/kg b.w. orally, 5 days a week during 9-day period; splenic cells incubated with OVA 3 days, ELISA; read-out: Suppression Rate (%) IL-5
Method: (§1) Effect on Cytokine Production of Mice Sensitized by Controlled-Release Ovalbumin
(§2) An osmotic pump (Alza Co., USA) containing a solution (100 μL) containing 1.0 mg of ovalbumin (OVA; albumin chicken egg grade III, Sigma Chemical) was implanted in the back of a male BALB/c mouse (Charles River) of 8 weeks old under ether anesthesia, and the mouse is sensitized by the controlled-release ovalbumin. After 11 days from implantation of the pump, a sample of spleen was removed, and a splenic cell suspension was prepared by the use of the RPMI-1640 medium (Bio Whittaker Inc., USA) containing inactivated fetal bovine serum (10% V/V; Bio Whittaker Inc., USA), 2-mercaptoethanol (50 μM), and gentamicin (20 μg/ml). A sample compound (30 mg/kg b.w.) was suspended in 0.4 ml of methylcellulose (MC), and the suspension was orally administered, 5 days a week during the 9-day period from the initiation day of sensitization to the day before the day of blood sample collection (1 Group, n=10). The splenic cell suspension was adjusted to a concentration of 5.0×10^6 cells/ml, and the resulting suspension (100 μl) was pipetted onto a 96 well U-bottomed plate, each of the wells containing a solution (100 μl/well) of 400 μg/ml OVA, and the plate was incubated at 37° C. in a 5% carbon dioxide gas incubator for 3 days. The cultured media were centrifuged at 200×g for 5 minutes, and the supernatants were collected and the production of IL-4, IL-5 and IFN-γ in each of the supernatants was determined by the ELISA method [Mouse IL-4 Bulk Kit (PerSeptive Biosystems), Mouse IL-5 Bulk Kit (PerSeptive Biosystems), and Mouse IFN-γ Bulk Kit (PerSeptive Biosystems)].

[2] = system: IL-4; assay: Effect on cytokine production of mice sensitized by controlled-release ovalbumin: IL-4; format: in vivo, BALB/c mouse; details: Mus musculus, po; 30 mg/kg b.w. orally, 5 days a week during 9-day period; splenic cells incubated with OVA 3 days, ELISA; read-out: Suppression Rate (%) IL-4
Method: as §1, §2

[3] = system: OVA-specific IgG2a (Th1 type); assay: Effect on antibody production of ovalbumin-sensitized mice: IgG2a; format: in vivo, BALB/c mouse; details: Mus musculus, po, 264 h; 30 mg/kg b.w. orally, 5 days a week during 9-day period; serum 11 days after first sensitization, ELISA; read-out: Suppression Rate (%) IgG2a
Method: (§3) Effect on Antibody Production of Mice Sensitized by Controlled-Release Ovalbumin
(§4) A male BALB/c mouse (Charles River) of 7 weeks old was sensitized by intraabdominal administration, twice at an interval of a week, of a mixture of 10 μg/mouse of ovalbumin (OVA; albumin chicken egg grade III; Sigma Chemical) and 1 mg of aluminum hydroxide hydrate gel suspension (Alum; LSL Co. LTD.). After 11 days from the first sensitization, blood was collected from beneath eye under ether anesthesia, and the amount of OVA-specific IgE, IgG1 (Th2 type) and IgG2a (Th1 type) antibodies in the serum were determined by the ELISA method. A sample compound (30 mg/kg b.w.) was suspended in 0.4 ml of methylcellulose (MC), and the suspension was orally administered, 5 days a week during the 9-day period from the initiation day of sensitization to the day before the day of blood sample collection (1 Group, n=8 to 10).

[4] = system: IFN-γ; assay: Effect on cytokine production of mice sensitized by controlled-release ovalbumin: IFN-γ; format: in vivo, BALB/c mouse; details: Mus musculus, po; 30 mg/kg b.w. orally, 5 days a week during 9-day period; splenic cells incubated with OVA 3 days, ELISA; read-out: Suppression Rate (%) IFN-γ
Method: as §1, §2

[5] = system: OVA-specific IgE; assay: Effect on antibody production of ovalbumin-sensitized mice: IgE; format: in vivo, BALB/c mouse; details: Mus musculus, po, 264 h; 30 mg/kg b.w. orally, 5 days a week during 9-day period; serum 11 days after first sensitization, ELISA; read-out: Suppression Rate (%) IgE
Method: as §3, §4

[6] = system: carrageenin edema of right hind limb plantar; assay: Anti-inflammatory activity, carrageenin edema method; format: in vivo, SD-rats; details: po, 10 mg/kg orally
Method: Anti-Inflammatory Activity
Male SD-rats (6 weeks old, CLEA Japan) were used (1 group, n=6). The Carrageenin edema method was performed according to the method of Winter et. al., (Proc. Soc. Exp. Biol. Med., vol. 111, p. 544-547, 1962). After the volume of right hind limb plantar of the rat was determined, a sample was orally administered (1.0 mL, b.w.), and immediately water was orally administered in an amount of 5 mL/rat. Meanwhile, only the solvent of the sample was orally administered to rats in control. After 1 hour, a solution of 1% carrageenin in saline (0.05 mL) was injected into the right hind limb plantar subcutaneously to induce edema. After 2 and 3 hours later from the injection, volumes of the right hind limb plantar were determined. The repression rate (%) of the sample was calculated by comparing the difference of the volumes of the plantar before the carrageenin shot and 2 and 3 hours after the shot between the sample groups and the control groups.

[7] = system: acetic acid induced rising and stretching; assay: Analgesic activity, acetic acid rising method; format: in vivo, ICR-mice; details: po, 20 min; 10 mg/kg orally, 30 minutes before 0.6% acetic acid i.p.; number of rising and stretching in 20 minutes; read-out: Repression rate (%) Dosage 10 mg/kg
Method: Analgesic Activity Acetic Acid Rising Method Male ICR-mice (5 weeks old, CLEA Japan) were used (1 group, n=10), and a sample was orally administered (0.2 mL/10 g, b.w.). After 30 minutes, 0.6% acetic acid solution was injected to mice intraperitoneally (0.1 mL/10 g, b.w.), and the mice were immediately transferred into an observation cage made of a transparent acrylic resin. The number of rising and stretching during the following period of 20 minutes was counted. The repression rate (%) was calculated by comparing the average numbers between the sample groups and the control groups.

[8] = system: yeast-induced pyrexia; assay: Antipyretic activity in yeast-induced pyrexia; format: in vivo, SD rats; details: 10 mg/kg orally; maximum difference in body temperature vs control over 6 hours
Method: Antipyretic Activity in Yeast-Induced Pyrexia Antipyretic activity was determined using male SD origin male-rats (7 weeks old, CLEA Japan, 1 group: n=6), according to the method of winter et. al. (J. Pharmacol. Exp. Ther., vol. 138, p. 405, 1963). Before 16 hours from measurement of body temperature, a suspension of 15% yeast in saline was injected subcutaneously (10 mL/kg, b.w.) into the rats to induce fever, and simultaneously supply of food was terminated while water was made available all the time. Each of the rats was raised separately. After 16 hours from the yeast shot, a thermistor terminal was inserted at an about 4 cm depth into rectum every hour, and the body temperatures after 30 seconds were recorded. After 18 hours, rats developing fevers consistently were selected, and a sample was orally administered to the rats (5 mL/kg, b.w.), while to the control, only the solvent was administered. After the administration, body temperatures were measured every hour for a period of 6 hours, and the maximum difference in body temperature between the rats in the sample group and in the control group were determined as Δ (° C.).

[9] = 2 hr after carrageenin injection, read-out: Repression rate (%) Dosage 10 mg/kg 2 hr later
[10] = 3 hr after carrageenin injection, read-out: Repression rate (%) Dosage 10 mg/kg 3 hr later

Row | melting point [°C] | Structure (SMILES) | inhibition in vivo at 30 mg/kg [1] [%] | inhibition in vivo at 30 mg/kg [2] [%] | inhibition in vivo at 30 mg/kg [3] [%] | inhibition in vivo at 30 mg/kg [4] [%] | inhibition in vivo at 30 mg/kg [5] [%] | inhibition in vivo at 10 mg/kg [6, 9] [%] | inhibition in vivo at 10 mg/kg [6, 10] [%] | inhibition in vivo at 10 mg/kg [7] [%] | Δ (° C.) Dosage 10 mg/kg [8]
1 | 182 to 185 | CSc1ccc2[nH]c3c(c(C)nn3-c3ccccn3)c(=O)c2c1 [Example 1-50, 3-Methyl-6-(methylsulfanyl)-1-(2-pyridinyl)-1,9-dihydro-4H-pyrazolo[3,4-b]quinolin-4-one] | 60.2 | 45.5 | 19.5 | 11.1 | 22 | – | – | – | –
2 | 284 | Cc1nn(-c2ccccn2)c2[nH]c3cc(F)c(Cl)cc3c(=O)c12 [Example 2-99, 6-Chloro-7-fluoro-3-methyl-1-(2-pyridinyl)-1,9-dihydro-4H-pyrazolo[3,4-b]quinolin-4-one] | – | – | – | – | – | 46 | 41 | 39 | –
3 | 297 to 298 | O=c1c2cc(Cl)ccc2[nH]c2c1cnn2-c1ccccn1 [Example 2-161, 6-Chloro-1-(2-pyridinyl)-1,9-dihydro-4H-pyrazolo[3,4-b]quinolin-4-one] | – | – | – | – | – | 33 | 33 | 74 | 1.4** ° C.
